# From ChEMBL document CHEMBL3885881, “DrugMatrix”
# Organism: Rattus norvegicus
# Test: DrugMatrix - Regimen: Daily Repeat
# Type: toxicity, organism-based, Sprague-Dawley
# Set-up: regimen Daily Repeat, gender Male, age 6-8 weeks
# Conditions: in vivo, sc, […], route mini-PUMP - SUBCUTANEOUS, dose 0.065 mg/Kg, dose level High, vehicle 100 % SALINE; for ABSOLUTE BASOPHIL / ABSOLUTE EOSINOPHIL / ABSOLUTE LYMPHOCYTE / ABSOLUTE MONOCYTE / ABSOLUTE SEGMENTED NEUTROPHIL / BASOPHIL / EOSINOPHIL / ERYTHROCYTE COUNT / HEMATOCRIT / HEMOGLOBIN / LEUKOCYTE COUNT / LYMPHOCYTE / MEAN CORPUSCULAR HEMOGLOBIN / MEAN CORPUSCULAR HEMOGLOBIN CONCENTRATION / MEAN CORPUSCULAR VOLUME / MONOCYTE / NEUTROPHIL / NUCLEATED RED BLOOD CELLS / PLATELET COUNT: tissue Blood; for ALANINE AMINOTRANSFERASE / ALBUMIN / ALKALINE PHOSPHATASE / ASPARTATE AMINOTRANSFERASE / BLOOD UREA NITROGEN / CARBON DIOXIDE / CHLORIDE / CHOLESTEROL / CREATININE / GLUCOSE / LACTATE DEHYDROGENASE / LIPASE / PHOSPHORUS / POTASSIUM / SODIUM / TOTAL BILIRUBIN / TOTAL PROTEIN / URIC ACID: tissue Plasma
compound,measurement,setting,value
C[C@]12CCC(=O)C=C1CC[C@@H]1[C@@H]2[C@@H](O)C[C@]2(C=O)[C@@H](C(=O)CO)CC[C@@H]12 [ALDOSTERONE],ABSOLUTE BASOPHIL,"72 h, time 3 day",0 CELLS/uL
same,ABSOLUTE EOSINOPHIL,"72 h, time 3 day",0 CELLS/uL
same,ABSOLUTE LYMPHOCYTE,"72 h, time 3 day",11286 CELLS/uL
same,ABSOLUTE MONOCYTE,"72 h, time 3 day",180.67 CELLS/uL
same,ABSOLUTE SEGMENTED NEUTROPHIL,"72 h, time 3 day",1866.67 CELLS/uL
same,BASOPHIL,"72 h, time 3 day",0%
same,EOSINOPHIL,"72 h, time 3 day",0%
same,ERYTHROCYTE COUNT,"72 h, time 3 day",5.69 x10E6/uL
same,HEMATOCRIT,"72 h, time 3 day",34.17%
same,HEMOGLOBIN,"72 h, time 3 day",12.73 G/DL
same,LEUKOCYTE COUNT,"72 h, time 3 day",13.33 x10E3/uL
same,LYMPHOCYTE,"72 h, time 3 day",84.67%
same,MEAN CORPUSCULAR HEMOGLOBIN,"72 h, time 3 day",22.37 pg
same,MEAN CORPUSCULAR HEMOGLOBIN CONCENTRATION,"72 h, time 3 day",37.3 G/DL
same,MEAN CORPUSCULAR VOLUME,"72 h, time 3 day",60.03 fL
same,MONOCYTE,"72 h, time 3 day",1.33%
same,NEUTROPHIL,"72 h, time 3 day",14%
same,NUCLEATED RED BLOOD CELLS,"72 h, time 3 day",0.33 /100WBC
same,PLATELET COUNT,"72 h, time 3 day",1067.67 x10E3/uL
same,ALANINE AMINOTRANSFERASE,"72 h, time 3 day",52.33 u/L
same,ALBUMIN,"72 h, time 3 day",3.8 G/DL
same,ALKALINE PHOSPHATASE,"72 h, time 3 day",293.67 u/L
same,ASPARTATE AMINOTRANSFERASE,"72 h, time 3 day",90 u/L
same,BLOOD UREA NITROGEN,"72 h, time 3 day",15.67 mg/dL
same,CARBON DIOXIDE,"72 h, time 3 day",32 mmol/L
same,CHLORIDE,"72 h, time 3 day",100 MEQ/L
same,CHOLESTEROL,"72 h, time 3 day",66.33 mg/dL
same,CREATININE,"72 h, time 3 day",0.14 mg/dL
same,GLUCOSE,"72 h, time 3 day",146 mg/dL
same,LACTATE DEHYDROGENASE,"72 h, time 3 day",443 u/L
same,LIPASE,"72 h, time 3 day",9.33 u/L
same,PHOSPHORUS,"72 h, time 3 day",11.27 mg/dL
same,POTASSIUM,"72 h, time 3 day",5.07 MEQ/L
same,SODIUM,"72 h, time 3 day",146.93 MEQ/L
same,TOTAL BILIRUBIN,"72 h, time 3 day",0.2 mg/dL
same,TOTAL PROTEIN,"72 h, time 3 day",5.73 G/DL
same,URIC ACID,"72 h, time 3 day",1.5 mg/dL
same,ABSOLUTE BASOPHIL,"120 h, time 5 day",0 CELLS/uL
same,ABSOLUTE EOSINOPHIL,"120 h, time 5 day",69 CELLS/uL
same,ABSOLUTE LYMPHOCYTE,"120 h, time 5 day",17030 CELLS/uL
same,ABSOLUTE MONOCYTE,"120 h, time 5 day",489 CELLS/uL
same,ABSOLUTE SEGMENTED NEUTROPHIL,"120 h, time 5 day",1812 CELLS/uL
same,BASOPHIL,"120 h, time 5 day",0%
same,EOSINOPHIL,"120 h, time 5 day",0.33%
same,ERYTHROCYTE COUNT,"120 h, time 5 day",5.8 x10E6/uL
same,HEMATOCRIT,"120 h, time 5 day",34.77%
same,HEMOGLOBIN,"120 h, time 5 day",12.97 G/DL
same,LEUKOCYTE COUNT,"120 h, time 5 day",19.4 x10E3/uL
same,LYMPHOCYTE,"120 h, time 5 day",87.33%
same,MEAN CORPUSCULAR HEMOGLOBIN,"120 h, time 5 day",22.4 pg
same,MEAN CORPUSCULAR HEMOGLOBIN CONCENTRATION,"120 h, time 5 day",37.3 G/DL
same,MEAN CORPUSCULAR VOLUME,"120 h, time 5 day",60.03 fL
same,MONOCYTE,"120 h, time 5 day",2.67%
same,NEUTROPHIL,"120 h, time 5 day",9.67%
same,NUCLEATED RED BLOOD CELLS,"120 h, time 5 day",0 /100WBC
same,PLATELET COUNT,"120 h, time 5 day",1473 x10E3/uL
same,ALANINE AMINOTRANSFERASE,"120 h, time 5 day",47.67 u/L
same,ALBUMIN,"120 h, time 5 day",3.77 G/DL
same,ALKALINE PHOSPHATASE,"120 h, time 5 day",252 u/L
same,ASPARTATE AMINOTRANSFERASE,"120 h, time 5 day",83 u/L
same,BLOOD UREA NITROGEN,"120 h, time 5 day",11.33 mg/dL
same,CARBON DIOXIDE,"120 h, time 5 day",36.33 mmol/L
same,CHLORIDE,"120 h, time 5 day",96.67 MEQ/L
same,CHOLESTEROL,"120 h, time 5 day",64.33 mg/dL
same,CREATININE,"120 h, time 5 day",0.13 mg/dL
same,GLUCOSE,"120 h, time 5 day",142.67 mg/dL
same,LACTATE DEHYDROGENASE,"120 h, time 5 day",335 u/L
same,LIPASE,"120 h, time 5 day",9 u/L
same,PHOSPHORUS,"120 h, time 5 day",11.97 mg/dL
same,POTASSIUM,"120 h, time 5 day",5.4 MEQ/L
same,SODIUM,"120 h, time 5 day",147.3 MEQ/L
same,TOTAL BILIRUBIN,"120 h, time 5 day",0.17 mg/dL
same,TOTAL PROTEIN,"120 h, time 5 day",5.53 G/DL
same,URIC ACID,"120 h, time 5 day",1.93 mg/dL
same,ABSOLUTE BASOPHIL,time 14 day,0 CELLS/uL
same,ABSOLUTE EOSINOPHIL,time 14 day,65.4 CELLS/uL
same,ABSOLUTE LYMPHOCYTE,time 14 day,13364.4 CELLS/uL
same,ABSOLUTE MONOCYTE,time 14 day,314 CELLS/uL
same,ABSOLUTE SEGMENTED NEUTROPHIL,time 14 day,2076.2 CELLS/uL
same,BASOPHIL,time 14 day,0%
same,EOSINOPHIL,time 14 day,0.6%
same,ERYTHROCYTE COUNT,time 14 day,6.35 x10E6/uL
same,HEMATOCRIT,time 14 day,37.42%
same,HEMOGLOBIN,time 14 day,13.62 G/DL
same,LEUKOCYTE COUNT,time 14 day,15.82 x10E3/uL
same,LYMPHOCYTE,time 14 day,84%
same,MEAN CORPUSCULAR HEMOGLOBIN,time 14 day,21.48 pg
same,MEAN CORPUSCULAR HEMOGLOBIN CONCENTRATION,time 14 day,36.4 G/DL
same,MEAN CORPUSCULAR VOLUME,time 14 day,59.08 fL
same,MONOCYTE,time 14 day,2%
same,NEUTROPHIL,time 14 day,13.4%
same,NUCLEATED RED BLOOD CELLS,time 14 day,0 /100WBC
same,PLATELET COUNT,time 14 day,1043.2 x10E3/uL
same,ALANINE AMINOTRANSFERASE,time 14 day,55.8 u/L
same,ALBUMIN,time 14 day,4.14 G/DL
same,ALKALINE PHOSPHATASE,time 14 day,346.6 u/L
same,ASPARTATE AMINOTRANSFERASE,time 14 day,86.8 u/L
same,BLOOD UREA NITROGEN,time 14 day,12.2 mg/dL
same,CARBON DIOXIDE,time 14 day,43 mmol/L
same,CHLORIDE,time 14 day,94.2 MEQ/L
same,CHOLESTEROL,time 14 day,64.6 mg/dL
same,CREATININE,time 14 day,0.17 mg/dL
same,GLUCOSE,time 14 day,150.2 mg/dL
same,LACTATE DEHYDROGENASE,time 14 day,88.6 u/L
same,LIPASE,time 14 day,9.2 u/L
same,PHOSPHORUS,time 14 day,11.36 mg/dL
same,POTASSIUM,time 14 day,4.4 MEQ/L
same,SODIUM,time 14 day,147.78 MEQ/L
same,TOTAL BILIRUBIN,time 14 day,0.14 mg/dL
same,TOTAL PROTEIN,time 14 day,6.2 G/DL
same,URIC ACID,time 14 day,1.72 mg/dL
